Measurements taken from US20260256792A1, “TREATMENT OF CHRONIC SPONTANEOUS URTICARIA BY ADMINISTERING (R)-2-[3-[4-AMINO-3-(2-FLUORO-4-PHENOXY-PHENYL)PYRAZOLO[3,4-D]PYRIMIDIN-1-YL]PIPERIDINE-1-CARBONYL]-4-METHYL-4-[4-(OXETAN-3-YL)PIPERAZIN-1-YL]PENT-2-ENENITRILE” (priority 2023, published 2026).

System: moderate-to-severe chronic spontaneous urticaria (CSU)
Assay: Phase 2 CSU study: itch severity score over 7 days (ISS7)
Format: in vivo, human
Conditions: for ISS7 Post-baseline Mean (SD) / ISS7 % Change difference for rilzabrutinib vs. placebo LS Mean (95% CI) / ISS7 % Change from baseline LS Mean (SE) / ISS7 Change difference for rilzabrutinib vs. placebo LS Mean (95% CI) / ISS7 Change from baseline LS Mean (SE): ITT; for Imputed non-responder n (%) (ISS7 reduction of 5 points or more) / Non-responder n (%) (ISS7 reduction of 5 points or more) / OR for rilzabrutinib vs. placebo (ISS7 reduction of 5 points or more) / RRD (%) for rilzabrutinib vs. placebo (ISS7 reduction of 5 points or more) / Responder n (%) (ISS7 reduction of 5 points or more): Omalizumab-Naïve Population, 400 mg BID
Source text: The study comprises a 12 week, randomized, double-blind, placebo-controlled, multi-center, dose-ranging efficacy and safety phase, followed by a 40 week open label extension (OLE) phase (see FIG. 1). The study consists of three phases and an optional OLE phase. […] Clinically, CSU is characterized by the spontaneous and recurrent appearance of pruritic hives. The proposed primary endpoints were the UAS7 at Week 12 in EU and EU reference countries and the ISS7 in the US. Regardless of where a participant was from, all assessments were the same. The UAS7 score is a composite score containing both the HSS7 and the ISS7. This allowed a global assessment of the two key components of urticaria: hives and itch. […] The UAS is a validated PRO measure. […] The daily UAS scores range from 0 to 6 point/day. […] Patients were to complete the UAS using the e-diary. […] The following secondary endpoints were to be analyzed using the same approach as for the primary endpoint: • Change from baseline in UAS7 at Week 4 • Change from baseline in UAS7 at Week 12 (for US and US reference countries) • Change from baseline in ISS7 at Week 12 (except US and US reference countries) • Change from baseline in HSS7 at Week 12

With CC(C)(C=C(C#N)C(=O)N1CCC[C@@H](n2nc(-c3ccc(Oc4ccccc4)cc3F)c3c(N)ncnc32)C1)N1CCN(C2COC2)CC1 [rilzabrutinib, (R)-2-[3-[4-amino-3-(2-fluoro-4-phenoxy-phenyl)pyrazolo[3,4-d]pyrimidin-1-yl]piperidine-1-carbonyl]-4-methyl-4-[4-(oxetan-3-yl)piperazin-1-yl]pent-2-enenitrile] the “ISS7 Post-baseline Mean (SD)” value (400 mg QPM, Week 8) was 10.61 (5.22), the “ISS7 % Change difference for rilzabrutinib vs. placebo LS Mean (95% CI)” value (from here on “ISS7 % Change difference … (95% CI)”) (400 mg QPM, Week 9) was −7.07% and the “ISS7 % Change from baseline LS Mean (SE)” value (400 mg QPM, Week 9) was −37.93%. For the same compound, the “ISS7 Change difference for rilzabrutinib vs. placebo LS Mean (95% CI)” value (shortened to “ISS7 Change difference … (95% CI)”) (400 mg QPM, Week 9) was −0.74, the “ISS7 Change from baseline LS Mean (SE)” value (400 mg QPM, Week 9) was −6.24 (0.96) and the “ISS7 Post-baseline Mean (SD)” value (400 mg QPM, Week 9) was 10.45 (5.08). The “ISS7 % Change difference … (95% CI)” value (400 mg QPM, Week 10) was −1.26%, the “ISS7 % Change from baseline LS Mean (SE)” value (400 mg QPM, Week 10) was −39.07 (6.29) % and the “ISS7 Change difference … (95% CI)” value (400 mg QPM, Week 10) was −0.17. For the same compound, the “ISS7 Change from baseline LS Mean (SE)” value (400 mg QPM, Week 10) was −6.47 (1.02), the “ISS7 Post-baseline Mean (SD)” value (400 mg QPM, Week 10) was 10.36 (5.24) and the “ISS7 % Change difference … (95% CI)” value (400 mg QPM, Week 11) was −3.30%. The “ISS7 % Change from baseline LS Mean (SE)” value (400 mg QPM, Week 11) was −36.92 (6.23) %, the “ISS7 Change difference … (95% CI)” value (400 mg QPM, Week 11) was −0.04 and the “ISS7 Change from baseline LS Mean (SE)” value (400 mg QPM, Week 11) was −5.90 (0.99). The “ISS7 Post-baseline Mean (SD)” value (400 mg QPM, Week 11) was 10.97 (5.48), the “ISS7 % Change difference … (95% CI)” value (400 mg QPM, Week 12) was 1.35% and the “ISS7 % Change from baseline LS Mean (SE)” value (400 mg QPM, Week 12) was −35.23 (6.55) %. The “ISS7 Change difference … (95% CI)” value (400 mg QPM, Week 12) was 0.85, the “ISS7 Change from baseline LS Mean (SE)” value (400 mg QPM, Week 12) was −5.46 (1.03) and the “ISS7 Post-baseline Mean (SD)” value (400 mg QPM, Week 12) was 11.37 (5.51). The “ISS7 % Change difference … (95% CI)” value (400 mg TID, Week 1) was −29.95%, the “ISS7 % Change from baseline LS Mean (SE)” value (400 mg TID, Week 1) was −40.41 (5.24) % and the “ISS7 Change difference … (95% CI)” value (400 mg TID, Week 1) was −4.65. For the same compound, the “ISS7 Change from baseline LS Mean (SE)” value (400 mg TID, Week 1) was −6.65 (0.76), the “ISS7 Post-baseline Mean (SD)” value (400 mg TID, Week 1) was 9.20 (5.60) and the “ISS7 % Change difference … (95% CI)” value (400 mg TID, Week 2) was −29.81%. For the same compound, the “ISS7 % Change from baseline LS Mean (SE)” value (400 mg TID, Week 2) was −49.29 (5.21) %, the “ISS7 Change difference … (95% CI)” value (400 mg TID, Week 2) was −4.51 and the “ISS7 Change from baseline LS Mean (SE)” value (400 mg TID, Week 2) was −7.92 (0.79). For the same compound, the “ISS7 Post-baseline Mean (SD)” value (400 mg TID, Week 2) was 7.97 (5.99), the “ISS7 % Change difference … (95% CI)” value (400 mg TID, Week 3) was −27.63% and the “ISS7 % Change from baseline LS Mean (SE)” value (400 mg TID, Week 3) was −50.07 (5.21) %. For the same compound, the “ISS7 Change difference … (95% CI)” value (400 mg TID, Week 3) was −3.76, the “ISS7 Change from baseline LS Mean (SE)” value (400 mg TID, Week 3) was −7.84 (0.83) and the “ISS7 Post-baseline Mean (SD)” value (400 mg TID, Week 3) was 7.93 (5.46). The “ISS7 % Change difference … (95% CI)” value (400 mg TID, Week 4) was −23.20%, the “ISS7 % Change from baseline LS Mean (SE)” value (400 mg TID, Week 4) was −48.97 (5.57) % and the “ISS7 Change difference … (95% CI)” value (400 mg TID, Week 4) was −3.13. For the same compound, the “ISS7 Change from baseline LS Mean (SE)” value (400 mg TID, Week 4) was −7.75 (0.88), the “ISS7 Post-baseline Mean (SD)” value (400 mg TID, Week 4) was 7.54 (5.21) and the “ISS7 % Change difference … (95% CI)” value (400 mg TID, Week 5) was −21.69%. The “ISS7 % Change from baseline LS Mean (SE)” value (400 mg TID, Week 5) was −54.96 (5.32) %, the “ISS7 Change difference … (95% CI)” value (400 mg TID, Week 5) was −3.36 and the “ISS7 Change from baseline LS Mean (SE)” value (400 mg TID, Week 5) was −8.93 (0.86). The “ISS7 Post-baseline Mean (SD)” value (400 mg TID, Week 5) was 6.70 (5.91), the “ISS7 % Change difference … (95% CI)” value (400 mg TID, Week 6) was −26.88% and the “ISS7 % Change from baseline LS Mean (SE)” value (400 mg TID, Week 6) was −55.31 (5.83) %. The “ISS7 Change difference … (95% CI)” value (400 mg TID, Week 6) was −4.09, the “ISS7 Change from baseline LS Mean (SE)” value (400 mg TID, Week 6) was −8.97 (0.93) and the “ISS7 Post-baseline Mean (SD)” value (400 mg TID, Week 6) was 6.81 (6.20). The “ISS7 % Change difference … (95% CI)” value (400 mg TID, Week 7) was −24.96%, the “ISS7 % Change from baseline LS Mean (SE)” value (400 mg TID, Week 7) was −53.83 (5.69) % and the “ISS7 Change difference … (95% CI)” value (400 mg TID, Week 7) was −3.71. For the same compound, the “ISS7 Change from baseline LS Mean (SE)” value (400 mg TID, Week 7) was −8.71 (0.91), the “ISS7 Post-baseline Mean (SD)” value (400 mg TID, Week 7) was 7.13 (5.42) and the “ISS7 % Change difference … (95% CI)” value (400 mg TID, Week 8) was −21.97%. The “ISS7 % Change from baseline LS Mean (SE)” value (400 mg TID, Week 8) was −54.76 (5.95) %, the “ISS7 Change difference … (95% CI)” value (400 mg TID, Week 8) was −3.05 and the “ISS7 Change from baseline LS Mean (SE)” value (400 mg TID, Week 8) was −8.66 (0.95). The “ISS7 Post-baseline Mean (SD)” value (400 mg TID, Week 8) was 6.72 (5.76), the “ISS7 % Change difference … (95% CI)” value (400 mg TID, Week 9) was −24.57% and the “ISS7 % Change from baseline LS Mean (SE)” value (400 mg TID, Week 9) was −55.43 (6.01) %. For the same compound, the “ISS7 Change difference … (95% CI)” value (400 mg TID, Week 9) was −3.35, the “ISS7 Change from baseline LS Mean (SE)” value (400 mg TID, Week 9) was −8.85 (0.95) and the “ISS7 Post-baseline Mean (SD)” value (400 mg TID, Week 9) was 6.33 (5.52). The “ISS7 % Change difference … (95% CI)” value (400 mg TID, Week 10) was −18.42%, the “ISS7 % Change from baseline LS Mean (SE)” value (400 mg TID, Week 10) was −56.23 (6.14) % and the “ISS7 Change difference … (95% CI)” value (400 mg TID, Week 10) was −2.68. For the same compound, the “ISS7 Change from baseline LS Mean (SE)” value (400 mg TID, Week 10) was −8.98 (0.99), the “ISS7 Post-baseline Mean (SD)” value (400 mg TID, Week 10) was 6.43 (5.48) and the “ISS7 % Change difference … (95% CI)” value (400 mg TID, Week 11) was −22.13%. The “ISS7 % Change from baseline LS Mean (SE)” value (400 mg TID, Week 11) was −55.75 (6.15) %, the “ISS7 Change difference … (95% CI)” value (400 mg TID, Week 11) was −3.15 and the “ISS7 Change from baseline LS Mean (SE)” value (400 mg TID, Week 11) was −9.02 (0.96). The “ISS7 Post-baseline Mean (SD)” value (400 mg TID, Week 11) was 6.57 (5.76), the “ISS7 % Change difference … (95% CI)” value (400 mg TID, Week 12) was −23.23% and the “ISS7 % Change from baseline LS Mean (SE)” value (400 mg TID, Week 12) was −59.81 (6.28) %. For the same compound, the “ISS7 Change difference … (95% CI)” value (400 mg TID, Week 12) was −3.26, the “ISS7 Change from baseline LS Mean (SE)” value (400 mg TID, Week 12) was −9.58 (1.01) and the “ISS7 Post-baseline Mean (SD)” value (400 mg TID, Week 12) was 5.59 (5.58). The “Imputed non-responder n (%) (ISS7 reduction of 5 points or more)” value (Week 1) was 0 n (%), the “Non-responder n (%) (ISS7 reduction of 5 points or more)” value (Week 1) was 18 (51.4) n (%) and the “OR for rilzabrutinib vs. placebo (ISS7 reduction of 5 points or more)” value (Week 1) was 3.240. For the same compound, the “RRD (%) for rilzabrutinib vs. placebo (ISS7 reduction of 5 points or more)” value (Week 1) was 25.3%, the “Responder n (%) (ISS7 reduction of 5 points or more)” value (Week 1) was 17 (48.6) n (%) and the “Imputed non-responder n (%) (ISS7 reduction of 5 points or more)” value (Week 2) was 1 (2.9) n (%). For the same compound, the “Non-responder n (%) (ISS7 reduction of 5 points or more)” value (Week 2) was 17 (48.6) n (%), the “OR for rilzabrutinib vs. placebo (ISS7 reduction of 5 points or more)” value (Week 2) was 2.836 and the “RRD (%) for rilzabrutinib vs. placebo (ISS7 reduction of 5 points or more)” value (Week 2) was 24.1%. For the same compound, the “Responder n (%) (ISS7 reduction of 5 points or more)” value (Week 2) was 18 (51.4) n (%).
